Values of other authors, collected in paper PMC6363533 (Biochemistry, 2018).

Molecular target: antithrombin
Details: read-out: Kd of TNS binding to antithrombin; cited from earlier work

Cc1ccc(Nc2ccc3cc(S(=O)(=O)O)ccc3c2)cc1 [TNS, 2-p-toluidinylnaphthalene-6-sulfonate]
Kd: > 10 µM
